This is an account of results in PubChem BioAssay (NCI).

Some test systems named below: HCT-15 colon; UO-31 renal; OVCAR-4 ovarian; HCT-116 colon; SF-295 CNS; BT-549 breast; SK-MEL-5 melanoma; NCI-H226 lung; A498 renal; HL-60(TB) leukemia.
Holding throughout (experiment): growth of human tumour cells (NCI), 48 h

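Five concentrations, 48 hours, 96-well plates. The concentration for full growth arrest is given as TGI.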

As to `CC(C)(C)[C@@H]1NC(=O)CN1C(=O)OCc1ccccc1`, the TGI in the assay on HCT-15 colon, in the assay on UO-31 renal, in the assay with OVCAR-4 ovarian, with HCT-116 colon, in the assay with SF-295 CNS and in the assay with BT-549 breast was > 100 µM each time. Moreover, the TGI with SK-MEL-5 melanoma, in the assay with NCI-H226 lung, with A498 renal and in the assay on HL-60(TB) leukemia was > 100 µM in each case.

Take `CC(C)(C)c1cc(C2COC(=O)COCCOCC(=O)OCCOCCO2)cc(C(C)(C)C)c1O` (stereo not given): the TGI in the assay on HCT-15 colon is > 100 µM; with UO-31 renal, 30.5 µM; in the assay on OVCAR-4 ovarian, > 100 µM; in the assay with HCT-116 colon, > 100 µM; in the assay with SF-295 CNS, 53.7 µM; with BT-549 breast it was > 77.7 µM. Besides, the TGI in the assay on SK-MEL-5 melanoma, in the assay with NCI-H226 lung, in the assay with A498 renal and in the assay on HL-60(TB) leukemia was > 100 µM each time.

Take `CC(C)C[C@H](NC(=O)[C@@H](Cc1cccc2ccccc12)NC(=O)N1CCOCC1)B(O)O`: the TGI with HCT-15 colon was 50.1 µM; with UO-31 renal, 41.5 µM; in the assay with OVCAR-4 ovarian, > 57.8 µM; in the assay on HCT-116 colon, 5.94 µM; with SF-295 CNS it was 43.8 µM; with BT-549 breast, 18.1 µM. The TGI was 9.24 µM in the assay with SK-MEL-5 melanoma, 3.2 µM in the assay on NCI-H226 lung, 18.1 µM in the assay on A498 renal and > 24.6 µM in the assay on HL-60(TB) leukemia.

As for `OC1(c2ccc(Cl)cc2)c2ccccc2C2=Nc3ccccc3CN21` (stereo not given), the TGI in the assay on HCT-15 colon was > 100 µM; with UO-31 renal, > 100 µM; in the assay with OVCAR-4 ovarian, 50.6 µM; in the assay on HCT-116 colon, 19 µM; with SF-295 CNS, > 50.4 µM; in the assay on BT-549 breast, > 100 µM. Also, the TGI is > 100 µM with SK-MEL-5 melanoma, > 71.9 µM in the assay with NCI-H226 lung, > 72.9 µM in the assay on A498 renal and > 75.5 µM in the assay on HL-60(TB) leukemia.

In the case of `CCC1=C(C)C2=NC1=CC1=NC(=C(CC)/C1=C/O)C=C1N=C3C(=C1C)C(=O)C(C(=O)OC)C3=C1NC(=C2)C(C)C1CCC(=O)OC` (stereo not given), the TGI in the assay with HCT-15 colon, in the assay with UO-31 renal, in the assay on OVCAR-4 ovarian, in the assay with HCT-116 colon, in the assay with SF-295 CNS and in the assay on BT-549 breast was > 100 µM in each case. Further, the TGI with SK-MEL-5 melanoma, in the assay with NCI-H226 lung, in the assay on A498 renal and in the assay on HL-60(TB) leukemia was > 100 µM throughout.

Consider `c1ccc(COc2nc3ccc(C45CC6CC(CC(C6)C4)C5)cc3[nH]2)cc1`, for which the TGI in the assay on HCT-15 colon was > 29.5 µM; with UO-31 renal, > 64.7 µM; in the assay with OVCAR-4 ovarian, > 100 µM; in the assay on HCT-116 colon, > 83.5 µM; in the assay with SF-295 CNS, > 100 µM; in the assay with BT-549 breast, > 100 µM. In addition, the TGI in the assay with SK-MEL-5 melanoma was 14.6 µM; in the assay on NCI-H226 lung, 46.2 µM; in the assay on A498 renal, > 100 µM; in the assay on HL-60(TB) leukemia, 43.7 µM.

Regarding `COc1ccc2c(c1)CC[C@@H]1C2CC[C@]2(C)OC(=O)CCC12` (stereo not given in full), the TGI with HCT-15 colon was > 100 µM; in the assay on UO-31 renal, 48.5 µM; with OVCAR-4 ovarian, 28.1 µM; in the assay with HCT-116 colon it was 21.6 µM; in the assay with SF-295 CNS it was 46.1 µM; in the assay on BT-549 breast, 23.6 µM. Moreover, the TGI with SK-MEL-5 melanoma is 29.5 µM; with NCI-H226 lung it was 36.7 µM; in the assay on A498 renal, > 100 µM; in the assay with HL-60(TB) leukemia it was > 100 µM.

In the case of `CC(C)(C)NCC(O)COc1cccc2[nH]c(C#N)cc12` (stereo not given), the TGI in the assay on HCT-15 colon, with UO-31 renal, in the assay on OVCAR-4 ovarian, in the assay with HCT-116 colon, in the assay on SF-295 CNS and in the assay with BT-549 breast was > 100 µM throughout. Moreover, the TGI in the assay on SK-MEL-5 melanoma, with NCI-H226 lung, in the assay on A498 renal and with HL-60(TB) leukemia was > 100 µM each time.

Regarding `Cc1ccc(S(=O)(=O)OC2CN3CCC2CC3)cc1` (stereo not given), the TGI with HCT-15 colon, in the assay with UO-31 renal, in the assay with OVCAR-4 ovarian, with HCT-116 colon, with SF-295 CNS and with BT-549 breast was > 100 µM each time. Further, the TGI in the assay with SK-MEL-5 melanoma, in the assay with NCI-H226 lung, in the assay on A498 renal and with HL-60(TB) leukemia was > 100 µM in each case.

Turning to `Brc1ccc(-c2ccc(-c3ccc(Br)s3)s2)s1`, the TGI in the assay on HCT-15 colon, in the assay on UO-31 renal, in the assay with OVCAR-4 ovarian, in the assay with HCT-116 colon, in the assay on SF-295 CNS and in the assay with BT-549 breast was > 100 µM each time. Further, the TGI with SK-MEL-5 melanoma, in the assay on NCI-H226 lung, with A498 renal and in the assay with HL-60(TB) leukemia was > 100 µM throughout.

For the compound `C(=N\NC1=NCCCN1)/c1ccc(-c2cn3cc(/C=N/NC4=NCCCN4)ccc3n2)cc1`, the TGI in the assay with HCT-15 colon, with UO-31 renal, in the assay with OVCAR-4 ovarian, in the assay on HCT-116 colon, in the assay on SF-295 CNS and with BT-549 breast was > 100 µM in each case. Further, the TGI was > 100 µM with SK-MEL-5 melanoma, > 100 µM in the assay with NCI-H226 lung, > 78.5 µM in the assay with A498 renal and > 58.1 µM in the assay with HL-60(TB) leukemia.

Turning to `CCCCCCc1cc(C=O)sc1-c1ccc(-c2sc(-c3ccc(-c4ccc(-c5cc(CCCCCC)c(-c6ccc(-c7sc(C=O)cc7CCCCCC)s6)s5)s4)s3)cc2CCCCCC)s1`, the TGI with HCT-15 colon, with UO-31 renal, in the assay on OVCAR-4 ovarian, with HCT-116 colon, with SF-295 CNS and in the assay with BT-549 breast was > 100 µM in each case. For the same compound, the TGI in the assay with SK-MEL-5 melanoma, in the assay on NCI-H226 lung, in the assay on A498 renal and with HL-60(TB) leukemia was > 100 µM in each case.

Take `Cc1nn(-c2ccccc2)c(C)c1/C=N/NC(=O)c1sc(=S)n(-c2ccc(Cl)cc2)c1N`: the TGI is > 100 µM in the assay on HCT-15 colon; 55.7 µM with UO-31 renal; 95.7 µM in the assay on OVCAR-4 ovarian; > 100 µM in the assay on HCT-116 colon; 5.37 µM in the assay on SF-295 CNS; > 100 µM in the assay with BT-549 breast. For the same compound, the TGI in the assay on SK-MEL-5 melanoma is 26 µM; in the assay on NCI-H226 lung it was > 100 µM; in the assay with A498 renal, > 100 µM; with HL-60(TB) leukemia, > 100 µM.

For `O=[N+]([O-])c1ccccc1S(=O)(=O)N1CCCc2cc(Cl)ccc21`, the TGI in the assay with HCT-15 colon, with UO-31 renal, in the assay with OVCAR-4 ovarian, with HCT-116 colon, in the assay on SF-295 CNS and in the assay on BT-549 breast was > 100 µM throughout. The TGI in the assay with SK-MEL-5 melanoma is > 100 µM; in the assay on NCI-H226 lung it was > 100 µM; in the assay on A498 renal, 76.1 µM; with HL-60(TB) leukemia it was 72.2 µM.

For `C#CCNC(Cc1ccccc1)C(=O)O` (stereo not given), the TGI in the assay with HCT-15 colon, with UO-31 renal, in the assay on OVCAR-4 ovarian, in the assay on HCT-116 colon, in the assay with SF-295 CNS and in the assay on BT-549 breast was > 100 µM throughout. Moreover, the TGI in the assay with SK-MEL-5 melanoma, with NCI-H226 lung, with A498 renal and with HL-60(TB) leukemia was > 100 µM in each case.

As to `COC(=O)c1nc2c(C)c(O)c(O)c([C@H](C)CCC=C(C)C)c2o1`, the TGI in the assay with HCT-15 colon was > 100 µM; in the assay with UO-31 renal, 41.5 µM; with OVCAR-4 ovarian, > 100 µM; in the assay with HCT-116 colon, 41.5 µM; in the assay on SF-295 CNS, 47 µM; in the assay on BT-549 breast, > 100 µM. Besides, the TGI was 28.4 µM with SK-MEL-5 melanoma, 34.2 µM with NCI-H226 lung, 39 µM with A498 renal and 45.6 µM with HL-60(TB) leukemia.

In the case of `CCC(C#N)N(Cc1cccc(CN(C(C)=O)C(C#N)CC)c1)C(C)=O` (stereo not given), the TGI in the assay on HCT-15 colon, with UO-31 renal, with OVCAR-4 ovarian, in the assay with HCT-116 colon, with SF-295 CNS and with BT-549 breast was > 100 µM throughout. Further, the TGI in the assay on SK-MEL-5 melanoma, in the assay on NCI-H226 lung, in the assay on A498 renal and in the assay with HL-60(TB) leukemia was > 100 µM in each case.

For the compound `COc1ccc(N=NN2CCCC2)cc1`, the TGI is 60.7 µM with HCT-15 colon; > 100 µM in the assay on UO-31 renal; 43.6 µM in the assay with OVCAR-4 ovarian; 38.6 µM in the assay with HCT-116 colon; > 100 µM with SF-295 CNS; 60.6 µM with BT-549 breast. Besides, the TGI in the assay with SK-MEL-5 melanoma, in the assay with NCI-H226 lung, in the assay on A498 renal and in the assay with HL-60(TB) leukemia was > 100 µM in each case.

Regarding `CCOC(=O)c1cc(-c2ccc(OC)c(OC)c2)cn1C`, the TGI in the assay with HCT-15 colon, with UO-31 renal, in the assay on OVCAR-4 ovarian, with HCT-116 colon, in the assay on SF-295 CNS and in the assay with BT-549 breast was > 10 µM each time. Further, the TGI in the assay with SK-MEL-5 melanoma, in the assay with NCI-H226 lung, in the assay on A498 renal and in the assay on HL-60(TB) leukemia was > 10 µM throughout.

As for `CCCCN(CCCC)CC(=O)c1ccc2cc(Cl)c3ccccc3c2c1`, the TGI with HCT-15 colon is 53.3 µM; in the assay on UO-31 renal, 50.4 µM; with OVCAR-4 ovarian it was 69.1 µM; in the assay with HCT-116 colon, > 100 µM; in the assay on SF-295 CNS, > 100 µM; in the assay with BT-549 breast, 41.8 µM. Further, the TGI was 34.6 µM in the assay with SK-MEL-5 melanoma, 89.5 µM in the assay on NCI-H226 lung, 46.9 µM in the assay on A498 renal and > 100 µM in the assay on HL-60(TB) leukemia.

On to `COc1ccccc1NC(=S)N/N=C(/c1ccccc1)c1ccccn1`, for which the TGI in the assay with HCT-15 colon came to 20.3 µM; with UO-31 renal, 14.1 µM; with OVCAR-4 ovarian it was 19.3 µM; with HCT-116 colon, 14.7 µM; in the assay with SF-295 CNS it was 7.17 µM; in the assay with BT-549 breast, 23 µM. Besides, the TGI in the assay with SK-MEL-5 melanoma was found to be 6.44 µM; in the assay on NCI-H226 lung it was 8.64 µM; with A498 renal, 12.5 µM; with HL-60(TB) leukemia it was 2.18 µM.
